In brackets after ≈: the same amount, converted by molar mass.
Experiments:
[1] = biological target: CYP 1A2 (Homo sapiens (Human), UniProt P05177); assay: CYP inhibition
[2] = biological target: A. baumannii FabI (Acinetobacter baumannii, UniProt D0CAD5); assay: biochemical
[3] = in vitro; settings: dog
[4] = tested on: E. coli ΔtolC (JW5503); assay type: cell-based; settings: efflux deficient E. coli ΔtolC
Outline: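 MICs by CLSI broth microdilution in cation-adjusted Mueller-Hinton broth, performed in biological triplicate. Strains: efflux-deficient E. coli ΔtolC (JW5503, KEIO collection) and K. pneumoniae BAA-2472 (ATCC).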

[5] = biological target: CYP 2D6 (Homo sapiens (Human), UniProt P10635); assay: biochemical
[6] = tested on: A. baumannii AR 0273; assay: microbe, parasite or virus in culture; assay type: cell-based; settings: Acinetobacter baumannii, AR0273, read-out: MIC A. baumannii AR 0273, clinical isolate
Outline: (§1)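 Broth microdilution per CLSI guidelines in cation-adjusted Mueller-Hinton broth, run in biological triplicate.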

[7] = tested on: E. coli AR 0048; assay: microbe, parasite or virus in culture; assay type: cell-based; settings: Escherichia coli, AR0048, read-out: MIC E. coli AR 0048, clinical isolate
Outline: as §1

[8] = tested on: A. baumannii AR 0299; assay: microbe, parasite or virus in culture; assay type: cell-based; settings: Acinetobacter baumannii, AR0299, read-out: MIC A. baumannii AR 0299, clinical isolate
Outline: as §1

[9] = tested on: K. pneumoniae AR 0560; assay: microbe, parasite or virus in culture; assay type: cell-based; settings: Klebsiella pneumoniae, AR0560, read-out: MIC K. pneumoniae AR 0560, clinical isolate
Outline: as §1

[10] = Hepatocyte stability; assay type: in vitro ADME
[11] = tested on: S. aureus USA300 LAC; assay: Neutropenic mouse thigh infection; assay type: in vivo, CD-1 mice; settings: 5 mg/kg, r.o.
Procedure: FIG. 7. […] A) Neutropenic mouse thigh infection model initiated in female BALB/c mice with A. baumannii AR-88 (1.36×10^5 CFU per mouse intramuscular, left thigh) were treated with vehicle (5 mice) or fabimycin (10 mice) four times a day (75 mg/kg intravenously) and bacterial burden evaluated at 26 h post-infection. B) Neutropenic mouse thigh infection initiated in CD-1 mice with S. aureus USA300 LAC (2.3×10^6 CFU per mouse intramuscular in thigh) were treated with vehicle (8 mice) or FabI inhibitor (8 mice per group) 2 and 7 h post-infection (5 mg/kg retro-orbital IV), […]
With formulation, MTD, and pharmacokinetic data in hand, the efficacy of fabimycin was evaluated in murine infection models. To start, a comparative assessment was made of fabimycin and Debio-1452-NH3 in two murine neutropenic infection models using a dosing regimen that is at the MTD for Debio-1452-NH3 but below the MTD for fabimycin (three doses, intramuscular, at 50 mg/kg).
Chart 1. Summary of Fabimycin in vivo models.

Sequence of A. baumannii FabI (D0CAD5 1-288): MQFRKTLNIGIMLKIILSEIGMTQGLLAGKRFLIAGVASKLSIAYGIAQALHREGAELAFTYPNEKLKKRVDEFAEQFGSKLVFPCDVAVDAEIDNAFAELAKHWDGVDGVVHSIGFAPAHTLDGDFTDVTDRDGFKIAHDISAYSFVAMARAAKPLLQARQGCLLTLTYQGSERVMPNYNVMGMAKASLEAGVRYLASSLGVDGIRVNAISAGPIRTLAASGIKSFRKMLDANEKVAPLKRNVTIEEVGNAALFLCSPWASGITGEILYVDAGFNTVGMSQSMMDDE
Sequence of CYP 2D6 (P10635 whole entry): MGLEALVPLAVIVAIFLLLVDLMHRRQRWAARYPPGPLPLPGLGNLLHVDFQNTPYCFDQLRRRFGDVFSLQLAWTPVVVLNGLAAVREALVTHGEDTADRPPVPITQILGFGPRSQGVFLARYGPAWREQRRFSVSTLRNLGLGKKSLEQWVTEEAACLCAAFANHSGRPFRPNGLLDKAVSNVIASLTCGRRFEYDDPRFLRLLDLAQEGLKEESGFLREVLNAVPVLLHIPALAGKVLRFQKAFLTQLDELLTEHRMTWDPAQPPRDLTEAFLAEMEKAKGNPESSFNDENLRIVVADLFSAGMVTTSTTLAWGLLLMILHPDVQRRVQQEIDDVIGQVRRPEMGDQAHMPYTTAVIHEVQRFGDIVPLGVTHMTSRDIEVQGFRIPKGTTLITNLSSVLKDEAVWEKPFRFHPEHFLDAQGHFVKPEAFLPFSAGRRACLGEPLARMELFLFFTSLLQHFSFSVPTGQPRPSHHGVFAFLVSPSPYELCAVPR
Sequence of CYP 1A2 (P05177 whole entry): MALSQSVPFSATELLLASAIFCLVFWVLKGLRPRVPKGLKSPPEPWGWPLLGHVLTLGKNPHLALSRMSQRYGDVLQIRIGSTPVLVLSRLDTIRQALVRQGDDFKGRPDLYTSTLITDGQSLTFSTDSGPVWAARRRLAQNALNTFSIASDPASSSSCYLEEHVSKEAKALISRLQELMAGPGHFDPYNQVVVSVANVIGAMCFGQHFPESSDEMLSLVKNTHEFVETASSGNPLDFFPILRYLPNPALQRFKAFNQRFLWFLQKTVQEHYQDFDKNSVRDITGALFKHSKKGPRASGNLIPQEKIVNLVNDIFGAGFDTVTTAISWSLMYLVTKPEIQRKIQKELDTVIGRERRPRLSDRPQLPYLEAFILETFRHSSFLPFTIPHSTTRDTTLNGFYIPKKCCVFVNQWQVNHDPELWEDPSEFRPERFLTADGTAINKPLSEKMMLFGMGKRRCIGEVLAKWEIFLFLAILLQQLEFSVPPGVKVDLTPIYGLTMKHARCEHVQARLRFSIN

For `Cc1c(CN(C)C(=O)/C=C/c2cnc3c(c2)CC[C@H](N)C(=O)N3)oc2ccccc12` [(S)-11, (S,E)-3-(7-amino-8-oxo-6,7,8,9-tetrahydro-5H-pyrido[2,3-b]azepin-3-yl)-N-methyl-N-((3-methylbenzofuran-2-yl)methyl)acrylamide], the IC50 [1] was 31 µM, the “fold change in Ki^app relative to Debio-1452-NH3” value ([2]; A. baumannii FabI, 3 vs. 114 nM) was greater than 30 fold and the Ki ([2]; purified FabI, apparent inhibition constant, read-out: A. baumannii FabI Ki^app) was 0.003 µM. The “fold more potent than (R)-11 against A. baumannii FabI” value ([2]; relative to opposite enantiomer (R)-11) was roughly 30 fold, the efflux ratio ([3]; MDCK-MDR1) was 9.4 and the Papp ([3]; MDCK-MDR1, MDR1-MDCK Permeability Papp A:B) was 0.6 ×10⁻⁶ cm/s. For the same molecule, the Papp ([3]; MDCK-MDR1, MDR1-MDCK Permeability Papp B:A) was 5.7 ×10⁻⁶ cm/s, the “MIC E. coli ΔtolC” value [4] was 0.016 µg/mL (≈ 0.0396 µM) and the “Plasma stability, t1/2, Mouse” value was 1.38 h. It also gave an IC50 [5] of 65 µM, an MIC [6] of 4 µg/mL (≈ 9.89 µM) and an MIC [7] of 2 µg/mL (≈ 4.94 µM). The MIC [8] was 2 µg/mL (≈ 4.94 µM), the MIC [9] was 4 µg/mL (≈ 9.89 µM) and the “Hepatocyte stability, Mouse” value [10] was 6.1 μL/min/million cells. The “log reduction relative to the vehicle” value [11] was 2.6 log.
